{
  "source": "patent US12433860B2",
  "about": "“Treatment of multiple sclerosis comprising DHODH inhibitors” (Immunic AG, priority 2021, dated 2025)",
  "key": {"[1]": {"system": "experimental autoimmune encephalomyelitis", "details": "rodents; cited from earlier work"}, "[2]": {"system": "patients with RRMS and evidence of active disease", "assay": "EMPhASIS Cohort 2 interim analysis: MRI lesions up to Week 12", "format": "in vivo, human", "protocol": "Given the relative equal performance of the two doses in Cohort 1 (see Example 1) and to allow for pharmacodynamic modeling of the dose-response relationship, a lower dose was investigated. The objective of the Cohort 2 sub-trial is to obtain exploratory data on the dose response of IMU-838 by evaluating a lower IMU-838 dose i.e. 10 mg/day to provide additional data for pharmacodynamic modelling. The 10 mg IMU-838 dose was selected since it is more than 50% lower than the lowest effective dose of Cohort 1 (30 mg IMU 838) and avoids undesired overlap in serum trough levels for pharmacodynamic modelling of the pooled Cohort 1 and 2 data. A small placebo arm is included to provide blinding of patients and to relate Cohort 2 treatment effects. Assessments and procedures mostly follow those described for the main treatment period in the Cohort 1 main trial. Trial objectives and endpoints: The objective of this sub-trial is to obtain more efficacy and safety data of IMU-838 in patients with RRMS and to allow pharmacodynamic modelling of the dose response. The endpoints analyzed in this interim analysis were between-treatment differences in the following MRI parameters: cumulative number of CUA MRI lesions up to Week 12; cumulative number of new Gadolinium enhancing (Gd+) lesions up to Week 12; proportion of patients without CUA MRI lesions until Week 12; and proportion of patients without new Gd+ lesions until Week 12. Overall trial design and plan: This is a double-blind, placebo-controlled, randomized, parallel-group sub-trial of P2 IMU-838 MS to assess the efficacy and safety of once-daily oral 10 mg/day IMU-838 compared to placebo in patients with RRMS and evidence of active disease. The sub-trial consists of a blinded main treatment period and an open-label, extended treatment period (FIG. 2). Patients were randomized 1:4 to placebo and 10 mg IMU-838 on Day 0."}, "[3]": {"system": "patients with relapsing-remitting multiple sclerosis", "assay": "EMPhASIS Cohort 1: annualized relapse rate and time-to-first relapse", "format": "in vivo, human", "details": "for adjusted mean annualized relapse rate: baseline until week 24", "protocol": "Other secondary endpoints included: the difference in the cumulative number of combined unique active lesions up to week 24 between vidofludimus calcium 45 mg and vidofludimus calcium 30 mg; number or cumulative number of gadolinium-enhancing, T1, or T2 lesions up to 24 weeks; annualized relapse rate from baseline until week 24; proportion of relapse-free patients up to week 24; time-to-first relapse; change in EDSS score from baseline; proportion of patients with EDSS score progression; brain atrophy and other MRI endpoints; and safety and tolerability as assessed by the investigators. Annualized relapse rate was defined as the total number of confirmed relapses divided by the real exposure time in years assessed over the time during the double-blind treatment period. EDSS progression was defined as an increase compared to baseline of at least 1.0 point for patients with a baseline EDSS score of 1.0 to 4.0 or of at least 1.5 points for patients with a baseline EDSS score of 0. Vidofludimus calcium trough concentrations (weeks 6 and 24) were used to assess the correlation between pharmacokinetics and MRI-based assessments. The effects of vidofludimus calcium on serum neurofilament (baseline and week 24) were also analyzed. All other secondary efficacy analyses were reported using descriptive statistics and were considered exploratory. The mean number or cumulative number of gadolinium-enhancing (Gd+), T1, or T2 lesions were summarized descriptively and analyzed with a generalized linear model as described earlier but adjusted for MRI field strength and baseline number of gadolinium-enhancing lesions only. Annualized relapse rate was compared between treatment groups and between the pooled vidofludimus calcium groups and placebo using a generalized linear model adjusted for baseline number of gadolinium-enhancing lesions, which included the offset term for real exposure time. Time-to-first relapse up to 24 weeks was analyzed using a Cox proportional hazards model, with covariates for treatment group and baseline gadolinium-enhancing lesions strata. The proportion of patients free of relapse was estimated using the Kaplan-Meier method. Statistical analyses were done using SAS version 9.4 (SAS Institute, Cary, NC, USA)."}, "[4]": {"system": "T-lymphocyte proliferation", "details": "in vitro; cited from earlier work"}, "[5]": {"system": "patients with relapsing-remitting multiple sclerosis", "assay": "EMPhASIS Cohort 1: safety and tolerability", "details": "for proportion of patients with at least one treatment-emergent adverse event: 24 weeks, placebo 44%; for patients who discontinued the study treatment prematurely: placebo 7%", "method": "(§1) Adverse events were assessed at screening, baseline, day 7, and weeks 6, 12, 18, and 24 and all unscheduled clinic visits. Routine clinical chemistries, haematology, liver function tests, and urinalysis were collected at baseline, day 7, and weeks 6, 12, 18, and 24. Vital signs and electrocardiogramere conducted at screening and regularly scheduled intervals. Adverse events of special interest included: red blood cells in urine, haematuria, and retroperitoneal colicky pain with suspected or confirmed nephrolithiasis.\n(§2) The intention-to-treat population was defined as all randomized patients who received at least one dose of placebo or vidofludimus calcium and were analyzed by the groups to which they were randomized. The safety population included all randomized patients who received at least one dose of placebo or vidofludimus calcium and was analyzed by the treatment assigned. The per-protocol population was defined as all randomized patients receiving at least one dose of placebo or vidofludimus calcium and no violations of major protocol criteria during treatment. The modified intention-to-treat population was defined as all randomized patients receiving at least one dose of placebo or vidofludimus calcium and having all MRI scans available for analysis."}, "[6]": {"system": "neurofilament light chain in serum", "assay": "EMPhASIS: change in serum neurofilament light chain", "format": "in vivo, human", "details": "for Median change in neurofilament light chain in serum from baseline to week 24: placebo 6.5%", "protocol": "Other secondary endpoints included: the difference in the cumulative number of combined unique active lesions up to week 24 between vidofludimus calcium 45 mg and vidofludimus calcium 30 mg; number or cumulative number of gadolinium-enhancing, T1, or T2 lesions up to 24 weeks; annualized relapse rate from baseline until week 24; proportion of relapse-free patients up to week 24; time-to-first relapse; change in EDSS score from baseline; proportion of patients with EDSS score progression; brain atrophy and other MRI endpoints; and safety and tolerability as assessed by the investigators. Annualized relapse rate was defined as the total number of confirmed relapses divided by the real exposure time in years assessed over the time during the double-blind treatment period. EDSS progression was defined as an increase compared to baseline of at least 1.0 point for patients with a baseline EDSS score of 1.0 to 4.0 or of at least 1.5 points for patients with a baseline EDSS score of 0. Vidofludimus calcium trough concentrations (weeks 6 and 24) were used to assess the correlation between pharmacokinetics and MRI-based assessments. The effects of vidofludimus calcium on serum neurofilament (baseline and week 24) were also analyzed.\nBased on pre-clinical and clinical studies and the single and multiple-dose Phase 1 studies with IMU-838, daily doses of IMU-838 of up to 50 mg once daily are considered safe. […] A post-hoc analysis from EMPhASIS study (see Example 1 and 2) in the non-relapse active subgroup of rrMS patients was conducted. […] Change in mean EDSS from baseline to Week 24 in a non-relapse active subgroup of rrMS patients (patients without relapse between baseline and Week 24)."}, "[7]": {"details": "in vivo; cited from earlier work"}, "[8]": {"system": "patients with relapsing-remitting multiple sclerosis", "details": "in vivo", "method": "as §1, §2"}},
  "note": "Where “and” joins values, the source holds several entries; their conditions need not be identical. Identical values can stand only once. Counter-ions that a name gives are not always drawn.",
  "data": [
    {"compound": "COc1cccc(-c2ccc(NC(=O)C3=C(C(=O)O)CCC3)c(F)c2)c1", "note": "[vidofludimus calcium, 1-cyclopentene-1-carboxylic acid, 2-(((3-fluoro-3′-methoxy(1,1′-biphenyl)-4-yl)amino)carbonyl)-, calcium salt (2:1)]", "values": [
      {"measurement": "activity in experimental autoimmune encephalomyelitis", "setting": "[1]", "result": "dose-dependent activity"},
      {"measurement": "suppression of CUA lesions at Week 12 compared with placebo", "setting": "[2]; 10 mg", "result": 32, "unit": "%"},
      {"measurement": "Cumulative number of CUA MRI lesions up to Week 12, Mean", "setting": "[2]; 10 mg (C2), mFAS, placebo 4.4", "result": 3.0},
      {"measurement": "Patients without CUA MRI lesions over 12 weeks", "setting": "[2]; 10 mg (C2), mFAS, placebo 41.4, listed as IMU-838", "result": "46% and 45.7%"},
      {"measurement": "Patients without New Gd+ lesions over 12 weeks", "setting": "[2]; 10 mg (C2), mFAS, placebo 49.3, listed as IMU-838", "result": "51% and 51.1%"},
      {"measurement": "lowest effective dose in patients with rrMS", "setting": "[2]; totality of Cohort 1 data and Week 12 interim analysis of Cohort 2", "result": 30, "unit": "mg"},
      {"measurement": "adjusted mean annualized relapse rate", "setting": "[3]; 30 mg once daily", "result": "0.39 (95% Cl 0.22-0.69)"},
      {"measurement": "hazard ratio for relapse up to 24 weeks", "setting": "[3]; 30 mg vs placebo", "result": "0.58 (95% Cl: 0.26-1.29)"},
      {"measurement": "rate ratio, annualized relapse rate", "setting": "[3]; 30 mg vs placebo", "result": "0.72 (95% Cl 0.34-1.55)"},
      {"measurement": "adjusted mean annualized relapse rate", "setting": "[3]; 45 mg once daily", "result": "0.48 (95% Cl 0.28-0.82)"},
      {"measurement": "hazard ratio for relapse up to 24 weeks", "setting": "[3]; 45 mg vs placebo", "result": "0.78 (95% Cl: 0.37-1.59)"},
      {"measurement": "rate ratio, annualized relapse rate", "setting": "[3]; 45 mg vs placebo", "result": "0.90 (95% Cl 0.44-1.86)"},
      {"measurement": "T-lymphocyte proliferation", "setting": "[4]", "result": "inhibited"},
      {"measurement": "patients experiencing serious adverse events", "setting": "[5]; 30 mg group, considered unrelated to treatment", "result": 2, "unit": "patients"},
      {"measurement": "proportion of patients with at least one treatment-emergent adverse event", "setting": "[5]; 30 mg", "result": 45, "unit": "%"},
      {"measurement": "patients who discontinued the study treatment prematurely", "setting": "[5]; 30 mg", "result": 3, "unit": "%"},
      {"measurement": "patients who met hepatotoxicity stopping rules", "setting": "[5]; 45 mg group", "result": "two"},
      {"measurement": "proportion of patients with at least one treatment-emergent adverse event", "setting": "[5]; 45 mg", "result": 41, "unit": "%"},
      {"measurement": "patients who discontinued the study treatment prematurely", "setting": "[5]; 45 mg", "result": 6, "unit": "%"},
      {"measurement": "Serious adverse events", "setting": "[5]; across treatment groups", "result": "0-3%"},
      {"measurement": "Renal treatment-emergent events, patients", "setting": "[5]; any dose, placebo 1%", "result": 2, "unit": "%"},
      {"measurement": "Hepatic treatment-emergent adverse events, patients", "setting": "[5]; any dose, placebo 4%", "result": 4, "unit": "%"},
      {"measurement": "Adverse events of special interest, patients", "setting": "[5]; any dose, ureterolithiasis, placebo 1%", "result": 1, "unit": "%"},
      {"measurement": "tolerability", "setting": "[5]; both doses (30 mg and 45 mg)", "result": "well tolerated"},
      {"measurement": "cardiovascular, haematological, infectious or malignancy-related adverse events", "setting": "[5]; in vivo", "result": "No remarkable cardiovascular, haematological, infectious or malignancy-related adverse events"},
      {"measurement": "changes in haematologic laboratory values (neutrophil, lymphocyte, leukocyte count)", "setting": "[5]; in vivo", "result": "No changes"},
      {"measurement": "changes in serum uric acid", "setting": "[5]; over 24 weeks, any treatment group", "result": "No marked changes"},
      {"measurement": "discontinuations attributable to treatment-emergent adverse events", "setting": "[5]; vidofludimus calcium groups, placebo n=3", "result": 2, "unit": "patients"},
      {"measurement": "Alopecia, fatigue, rash, and cystitis treatment-emergent adverse events not recorded in placebo-treated patients", "setting": "[5]; vidofludimus calcium-treated patients", "result": "1-4%"},
      {"measurement": "Median change in neurofilament light chain in serum from baseline to week 24", "setting": "[6]; 30 mg once daily", "result": "−17.0", "unit": "%"},
      {"measurement": "decrease in serum neurofilament light chain (NfL), dose comparison", "setting": "[6]; 45 mg dose, FIG. 3A", "result": "greater decrease"},
      {"measurement": "Median change in neurofilament light chain in serum from baseline to week 24", "setting": "[6]; 45 mg once daily", "result": "−20.5", "unit": "%"},
      {"measurement": "half-life", "setting": "[7]", "result": "approximately 30 h"},
      {"measurement": "deaths during the trial", "setting": "[8]", "result": "No deaths occurred"}
    ]}
  ]
}
